Results reported in ChEMBL document CHEMBL3431459, “Roche carnitine palmitoyltransferase modulator screening data (supplementary data associated with the publication CHEMBL2216752)”.
≈ marks a conversion by molar mass, not a printed value.

Experiments:
[1] = SUPPLEMENTARY: Lipophilicity (log D) Determination by high-throughput shake-flask; assay type: physicochemical; conditions: octanol/water
[2] = SUPPLEMENTARY: PAMPA permeability assay; assay type: physicochemical; conditions: read-out: Permeability
[3] = biological target: T1, Carnitine O-palmitoyltransferase 1, muscle isoform (Homo sapiens, UniProt Q92523); assay: SUPPLEMENTARY: Inhibition of Carnitine palmitoyltransferase 1, muscle isoform; set-up: species or system Muscle tissue
T1 sequence (Q92523 whole entry): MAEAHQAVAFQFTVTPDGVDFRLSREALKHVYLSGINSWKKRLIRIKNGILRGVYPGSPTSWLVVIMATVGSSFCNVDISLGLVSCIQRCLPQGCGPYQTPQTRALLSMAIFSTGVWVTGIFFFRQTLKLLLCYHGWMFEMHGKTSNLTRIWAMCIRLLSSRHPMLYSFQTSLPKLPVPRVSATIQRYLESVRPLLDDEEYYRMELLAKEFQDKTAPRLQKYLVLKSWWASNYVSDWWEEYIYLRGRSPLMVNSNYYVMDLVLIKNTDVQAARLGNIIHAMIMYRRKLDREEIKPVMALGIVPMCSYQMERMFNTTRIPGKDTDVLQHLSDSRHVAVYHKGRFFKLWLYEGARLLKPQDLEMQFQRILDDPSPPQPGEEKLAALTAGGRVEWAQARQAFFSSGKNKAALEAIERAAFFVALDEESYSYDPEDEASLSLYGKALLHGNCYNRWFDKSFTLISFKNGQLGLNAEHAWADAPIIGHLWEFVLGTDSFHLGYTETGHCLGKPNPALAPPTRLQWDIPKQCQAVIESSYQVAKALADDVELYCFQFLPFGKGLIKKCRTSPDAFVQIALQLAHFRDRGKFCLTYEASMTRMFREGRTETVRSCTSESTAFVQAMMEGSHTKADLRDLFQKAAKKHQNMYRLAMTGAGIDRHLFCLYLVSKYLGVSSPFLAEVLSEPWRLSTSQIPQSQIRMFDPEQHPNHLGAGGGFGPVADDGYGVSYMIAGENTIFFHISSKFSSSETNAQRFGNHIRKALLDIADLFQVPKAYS

[4] = biological target: T2, Carnitine O-palmitoyltransferase 1, liver isoform (Homo sapiens, UniProt P50416); assay: (§1) SUPPLEMENTARY: Inhibition of Carnitine palmitoyltransferase 1, liver isoform
T2 sequence (P50416 whole entry): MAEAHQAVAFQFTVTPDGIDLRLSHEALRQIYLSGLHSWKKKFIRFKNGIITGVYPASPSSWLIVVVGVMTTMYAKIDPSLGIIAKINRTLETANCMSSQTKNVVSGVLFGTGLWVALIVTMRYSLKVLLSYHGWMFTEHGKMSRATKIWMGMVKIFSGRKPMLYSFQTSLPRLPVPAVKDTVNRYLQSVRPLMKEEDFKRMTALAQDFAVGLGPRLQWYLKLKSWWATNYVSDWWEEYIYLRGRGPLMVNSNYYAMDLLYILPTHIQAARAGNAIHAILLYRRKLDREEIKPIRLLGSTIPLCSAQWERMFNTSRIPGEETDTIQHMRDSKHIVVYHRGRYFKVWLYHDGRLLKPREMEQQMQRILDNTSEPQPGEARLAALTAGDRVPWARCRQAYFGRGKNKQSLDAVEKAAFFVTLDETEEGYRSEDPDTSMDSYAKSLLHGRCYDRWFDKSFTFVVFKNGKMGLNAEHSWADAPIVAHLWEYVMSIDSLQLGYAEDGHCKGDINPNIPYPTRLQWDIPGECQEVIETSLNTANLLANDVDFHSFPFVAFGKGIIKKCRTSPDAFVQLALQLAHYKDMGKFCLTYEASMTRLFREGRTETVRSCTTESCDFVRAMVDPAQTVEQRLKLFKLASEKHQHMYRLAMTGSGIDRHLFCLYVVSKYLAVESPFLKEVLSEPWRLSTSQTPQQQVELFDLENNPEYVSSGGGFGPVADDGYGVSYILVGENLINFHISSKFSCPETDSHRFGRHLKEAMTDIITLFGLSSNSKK

[5] = biological target: T3, Carnitine O-palmitoyltransferase 1, liver isoform (Rattus norvegicus, UniProt P32198); assay: as §1
T3 sequence (P32198 whole entry): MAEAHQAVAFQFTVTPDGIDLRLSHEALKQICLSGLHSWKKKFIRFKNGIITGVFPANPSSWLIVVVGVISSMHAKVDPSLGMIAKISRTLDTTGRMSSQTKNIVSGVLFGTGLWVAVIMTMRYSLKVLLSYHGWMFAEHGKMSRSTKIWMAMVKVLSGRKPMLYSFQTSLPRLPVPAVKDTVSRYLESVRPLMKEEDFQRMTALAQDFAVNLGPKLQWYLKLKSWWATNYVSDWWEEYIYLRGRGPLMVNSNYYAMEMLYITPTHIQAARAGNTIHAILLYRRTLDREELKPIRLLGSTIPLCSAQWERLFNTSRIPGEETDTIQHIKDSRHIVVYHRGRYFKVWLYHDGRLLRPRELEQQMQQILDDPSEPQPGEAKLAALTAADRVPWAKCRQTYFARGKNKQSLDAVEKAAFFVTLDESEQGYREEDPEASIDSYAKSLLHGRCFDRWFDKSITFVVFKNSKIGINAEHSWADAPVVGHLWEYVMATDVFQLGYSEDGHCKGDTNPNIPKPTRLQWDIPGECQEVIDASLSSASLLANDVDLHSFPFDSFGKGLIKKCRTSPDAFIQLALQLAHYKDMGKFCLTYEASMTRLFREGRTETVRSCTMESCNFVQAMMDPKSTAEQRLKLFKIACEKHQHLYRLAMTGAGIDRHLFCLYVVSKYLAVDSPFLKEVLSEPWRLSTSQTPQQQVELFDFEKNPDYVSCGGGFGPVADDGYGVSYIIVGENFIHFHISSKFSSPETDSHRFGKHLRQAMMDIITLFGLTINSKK

[6] = SUPPLEMENTARY: Lyophilisation Solubility Assay (LYSA); assay type: physicochemical; conditions: read-out: Kinetic_solubility
[7] = biological target: T4, Carnitine O-palmitoyltransferase 2, mitochondrial (Homo sapiens, UniProt P23786); assay: (§2) SUPPLEMENTARY: Inhibition of Carnitine palmitoyltransferase 2
T4 sequence (P23786 whole entry): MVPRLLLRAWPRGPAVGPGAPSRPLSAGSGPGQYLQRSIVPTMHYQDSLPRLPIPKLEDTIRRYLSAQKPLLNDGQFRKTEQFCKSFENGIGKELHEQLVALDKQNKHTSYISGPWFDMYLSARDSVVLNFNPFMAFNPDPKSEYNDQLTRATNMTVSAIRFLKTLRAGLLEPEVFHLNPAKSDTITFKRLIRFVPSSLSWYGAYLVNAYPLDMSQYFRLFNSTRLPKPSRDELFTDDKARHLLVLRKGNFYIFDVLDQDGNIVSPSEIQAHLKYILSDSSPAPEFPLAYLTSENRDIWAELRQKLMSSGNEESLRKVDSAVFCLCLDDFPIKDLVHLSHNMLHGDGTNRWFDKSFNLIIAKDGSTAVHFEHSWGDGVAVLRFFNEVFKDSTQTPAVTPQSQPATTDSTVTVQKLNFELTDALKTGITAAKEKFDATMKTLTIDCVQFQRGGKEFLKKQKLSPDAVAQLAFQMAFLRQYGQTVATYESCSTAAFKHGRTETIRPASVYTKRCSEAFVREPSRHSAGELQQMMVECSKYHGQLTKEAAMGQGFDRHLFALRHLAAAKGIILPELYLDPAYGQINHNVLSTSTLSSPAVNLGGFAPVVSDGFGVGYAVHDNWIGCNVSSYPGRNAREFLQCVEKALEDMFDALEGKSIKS

[8] = biological target: T5, Carnitine O-palmitoyltransferase 2, mitochondrial (Rattus norvegicus, UniProt P18886); assay: as §2
T5 sequence (P18886 whole entry): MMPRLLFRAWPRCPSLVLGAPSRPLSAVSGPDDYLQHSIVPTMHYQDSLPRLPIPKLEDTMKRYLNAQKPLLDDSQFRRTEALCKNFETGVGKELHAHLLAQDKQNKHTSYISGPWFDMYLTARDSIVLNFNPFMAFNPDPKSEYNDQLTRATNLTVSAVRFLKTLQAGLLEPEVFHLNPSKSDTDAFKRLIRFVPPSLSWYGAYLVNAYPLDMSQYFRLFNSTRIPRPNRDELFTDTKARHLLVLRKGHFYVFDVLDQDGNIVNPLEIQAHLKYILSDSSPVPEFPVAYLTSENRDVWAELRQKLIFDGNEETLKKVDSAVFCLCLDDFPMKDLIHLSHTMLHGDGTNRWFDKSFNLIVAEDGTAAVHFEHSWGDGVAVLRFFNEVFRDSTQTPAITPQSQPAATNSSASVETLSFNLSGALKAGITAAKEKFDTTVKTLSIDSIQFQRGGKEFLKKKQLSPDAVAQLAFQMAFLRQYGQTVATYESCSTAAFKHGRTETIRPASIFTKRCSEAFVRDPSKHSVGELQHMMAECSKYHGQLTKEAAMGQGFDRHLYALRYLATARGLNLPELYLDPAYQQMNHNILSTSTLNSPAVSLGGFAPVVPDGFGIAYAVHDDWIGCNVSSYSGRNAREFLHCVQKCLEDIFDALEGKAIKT

SMILES	logD [1]	Papp [2] [×10⁻⁶ cm/s]	IC50 [3] [nM]	IC50 [4] [nM]	IC50 [5] [nM]	solubility kinetic [6] [µg/mL]	IC50 [7] [nM]	IC50 [8] [nM]
COc1ccc(Cl)cc1S(=O)(=O)c1cn(CCO)c2ccc(C(=O)Nc3ccccc3)cc12	3.4	0.06	> 100000	43.8	20.5	< 1	> 100000	> 100000
O=C(COc1ccccc1)N1CCCC[C@@H]1c1noc(-c2cccc(N3CCCS3(=O)=O)c2)n1	2.89	1	> 100000	67	162	< 1	> 100000	> 100000
CN1CCN(C(=O)COc2ccccc2)[C@@H](c2nc(-c3ccc4[nH]nnc4c3)no2)C1	1.86	3.75	> 100000	24.6	265	167 (≈ 398 µM)	> 100000	> 100000
Nc1ccc(-c2n[nH]c([C@H]3CCCCN3C(=O)COc3ccccc3)n2)cn1	1.92	3.97	> 100000	286	865	111 (≈ 293 µM)	45300	66000
COc1ccc(Cl)cc1S(=O)(=O)N1CC(C(=O)O)Cc2ccc(C(=O)Nc3ccccc3)cc21 (configuration not stated)	0.31	1.83	5900	20.8	14	203 (≈ 405 µM)	> 100000	> 100000
CC(=O)Nc1cc(F)cc(-c2n[nH]c([C@H]3CCCCN3C(=O)COc3ccccc3)n2)c1	3.22	1.69	> 100000	26.4	65.6	37 (≈ 84.6 µM)	> 100000	> 100000
Nc1cc(-c2nc([C@H]3CCCCN3C(=O)COc3ccccc3)no2)ccn1	2.47	4.86	> 100000	110	372	61 (≈ 161 µM)	42700	> 100000
CC1(C)NC(=O)N(c2ccc(Cl)c(-c3nc([C@H]4CCCCN4C(=O)COc4ccccc4)no3)c2)C1=O	3.29	0.49	22700	91.2	247	< 1	6090	21700
COc1ccc(Cl)cc1S(=O)(=O)N1CCOc2c(Cl)cc(C(=O)Nc3ccn(CC(=O)O)n3)cc21	-0.79	0.03	5650	218	144	558 (≈ 1030 µM)	> 100000	> 100000
O=C(COc1ccccc1)N1CCCC[C@@H]1c1noc(-c2cc([N+](=O)[O-])[nH]n2)n1	1.07	6.99	> 100000	140	388	68 (≈ 171 µM)	> 100000	> 100000
O=C(Nc1ccc(-c2nnn[nH]2)cc1)c1cccc(NS(=O)(=O)c2cccc(Cl)c2)c1	0.5	0.0275	226	20.1	21.8	16 (≈ 35.2 µM)	54600	> 100000
COc1ccc(Cl)cc1S(=O)(=O)Nc1cc(C(=O)Nc2ccccc2)ccc1/C=C/C(=O)O	0.36	1	83100	136	79.8	> 585	> 100000	> 100000
NC(=O)COc1cccc(-c2noc([C@H]3CCCCN3C(=O)COc3ccccc3)n2)c1	2.51	2.49	> 100000	63.6	147	57 (≈ 131 µM)	18500	> 100000
COc1ccc(Cl)cc1S(=O)(=O)N1COc2c(F)cc(C(=O)Nc3ccc(C(=O)O)c(F)c3)cc21	0.63	1.87	4930	61.7	84.4	59 (≈ 112 µM)	1950	10500
